IC50 data for two molecules are collected here from BindingDB's records for doi:10.1016/j.bmc.2012.01.011 (Korea Research Institute of Bioscience and Biotechnology, 2012).

For the experiment, the target named is Neuraminidase (Influenza A virus (strain A/Brevig Mission/1/1918 H1N1), UniProt Q9IGQ6). Nature of the experiment: Inhibition of recombinant influenza A virus H1N1 A/Bervig_Mission/1/18 sialidase activity using 4-methylumbelliferyl-alpha-D-N-acetylneuraminic acid sodium salt hydrate as substrate by fluorimetric analysis.
Chain of Neuraminidase (Q9IGQ6 whole entry): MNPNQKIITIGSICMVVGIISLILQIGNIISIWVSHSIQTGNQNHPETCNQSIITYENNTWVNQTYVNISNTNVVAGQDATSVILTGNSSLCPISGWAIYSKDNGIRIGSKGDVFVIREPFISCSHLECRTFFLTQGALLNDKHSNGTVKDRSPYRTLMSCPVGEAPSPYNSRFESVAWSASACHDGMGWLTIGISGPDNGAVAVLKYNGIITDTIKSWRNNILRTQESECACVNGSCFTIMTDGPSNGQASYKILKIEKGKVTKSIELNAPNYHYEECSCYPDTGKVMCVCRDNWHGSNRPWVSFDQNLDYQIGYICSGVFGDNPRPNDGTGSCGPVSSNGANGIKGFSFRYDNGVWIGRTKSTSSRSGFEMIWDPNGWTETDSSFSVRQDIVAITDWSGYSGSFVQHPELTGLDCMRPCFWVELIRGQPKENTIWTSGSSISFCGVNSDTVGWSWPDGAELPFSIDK

On to `CC(C)=CC=C(OC(=O)C(C)C)c1cc(O)c2c(O)ccc(O)c2c1O`, for which the IC50 was 40.5 µM.

In the case of `CC(C)=CC=C(OC(=O)CC(C)(C)O)c1cc(O)c2c(O)ccc(O)c2c1O` [(R)-1-(5,8-dihydroxy-1,4-dioxo-1,4-dihydronaphthalen-2-yl)-4-methylpent-3-enyl 3-hydroxy-3-methylbutanoate], the half-inhibitory concentration (IC50) was 40.5 µM.
